Test results from patent US20220081412A1, “QUINOLINYL-PYRAZINE-CARBOXAMIDE COMPOUNDS AND USES THEREOF” (The Regents of the University of Michigan, priority 2018, published 2022).

System: MIA PaCa-2 cells
Assay: Bru-seq analysis for nascent RNA synthesis (log2FC of genes, GSEA gene sets)
Format: cell-based, human
Settings: 4 h
[1] = PYEON_CANCER_HEAD_AND_NECK_VS_CERVICAL_UP, C2, downregulated
[2] = RIGGINS_TAMOXIFEN_RESISTANCE_DN, C2, downregulated
[3] = SCHLOSSER_MYC_TARGETS_AND_SERUM_RESPONSE_DN, C2, downregulated
[4] = SENGUPTA_NASOPHARYNGEAL_CARCINOMA_UP, C2, downregulated
[5] = SENGUPTA_NASOPHARYNGEAL_CARCINOMA_WITH_LMP1_UP, C2, downregulated
[6] = SHEN_SMARCA2_TARGETS_UP, C2, downregulated
[7] = TAKEDA_TARGETS_OF_NUP98_HOXA9_FUSION_3D_UP, C2, downregulated
[8] = TAKEDA_TARGETS_OF_NUP98_HOXA9_FUSION_6HR_UP, C2, downregulated
[9] = TCANNTGAY_SREBP1_01, TFBT, upregulated
[10] = TGANNYRGCA_TCF11MAFG_01, TFBT, upregulated
[11] = TTTNNANAGCYR_UNKNOWN, TFBT, upregulated
[12] = YANG_BREAST_CANCER_ESR1_LASER_DN, C2, downregulated
[13] = ZHANG_BREAST_CANCER_PROGENITORS_UP, C2, downregulated
[14] = ZHANG_TLX_TARGETS_36HR_DN, C2, downregulated
[15] = ZHANG_TLX_TARGETS_DN, C2, downregulated
[16] = ZHENG_BOUND_BY_FOXP3, C2, downregulated
[17] = top upregulated noncoding genes, MIA PaCa-2 cells
[18] = top upregulated protein-coding genes, MIA PaCa-2 cells

Cc1cc(NC(=O)c2cnc(N3CCNCC3)cn2)c2ncccc2c1 [J28, N-(6-methylquinolin-8-yl)-5-(piperazin-1-yl)pyrazine-2-carboxamide]
ES (OCT1Q5_01, TFBT, upregulated): 0.383 | NES (OCT1Q5_01, TFBT, upregulated): 1.568 | ES (PEA3_Q6, TFBT, upregulated): 0.389 | NES (PEA3_Q6, TFBT, upregulated): 1.645 | log2FC (PHLDB2, downregulated protein-coding gene): −0.93 | log2FC (PTX3, downregulated protein-coding gene): −1.04 | ES [1]: −0.405 | NES [1]: −1.998 | ES [2]: −0.420 | NES [2]: −1.996 | log2FC (RNVU1-6, downregulated noncoding gene): −1.29 | ES [3]: −0.485 | NES [3]: −1.909 | ES [4]: −0.477 | NES [4]: −2.454 | ES [5]: −0.503 | NES [5]: −2.612 | ES [6]: −0.402 | NES [6]: −2.248 | log2FC (SLCO1B3, downregulated protein-coding gene): −0.96 | log2FC (SPTY2D1-AS1, downregulated protein-coding gene): −0.93 | ES (SREBP1_01, TFBT, upregulated): 0.417 | NES (SREBP1_01, TFBT, upregulated): 1.757 | ES (SREBP1_Q6, TFBT, upregulated): 0.386 | NES (SREBP1_Q6, TFBT, upregulated): 1.611 | ES (SRF_01, TFBT, upregulated): 0.541 | NES (SRF_01, TFBT, upregulated): 1.708 | log2FC (SRRM1P2, downregulated noncoding gene): −0.97 | ES [7]: −0.469 | NES [7]: −1.940 | ES [8]: −0.667 | NES [8]: −2.252 | ES [9]: 0.399 | NES [9]: 1.843 | log2FC (TEX15, downregulated protein-coding gene): −0.95 | ES [10]: 0.359 | NES [10]: 1.552 | ES [11]: 0.502 | NES [11]: 1.859 | log2FC (TXNRD3NB, downregulated protein-coding gene): −0.86 | log2FC (WWTR1-IT1, downregulated noncoding gene): −1.14 | ES [12]: −0.521 | NES [12]: −1.924 | ES [13]: −0.342 | NES [13]: −1.914 | ES [14]: −0.518 | NES [14]: −2.618 | ES [15]: −0.457 | NES [15]: −2.032 | ES [16]: −0.362 | NES [16]: −1.929 | log2FC (ZNF37A, downregulated protein-coding gene): −0.93 | log2FC (ZNF816, downregulated protein-coding gene): −1.58 | log2FC AC027307.3 [17]: 1.20 | log2FC AC068473.5 [17]: 0.84 | log2FC AC090826.2 [17]: 0.90 | log2FC AC092279.1 [17]: 0.84 | log2FC AC106886.2 [17]: 1.10 | log2FC AC141586.1 [17]: 1.01 | log2FC AC239868.4 [17]: 0.91 | log2FC AL049543.1 [17]: 1.21 | log2FC AP001065.1 [17]: 0.95 | log2FC KRT18P31 [17]: 0.89 | log2FC PCBP2P1 [17]: 0.84 | log2FC RN7SL16P [17]: 1.19 | log2FC RPS16P5 [17]: 0.97 | log2FC SLC2A1-AS1 [17]: 1.22 | log2FC SNHG20 [17]: 1.06 | log2FC SNORA3B [17]: 0.88 | log2FC SNORA65 [17]: 1.28 | log2FC SNORA73B [17]: 0.91 | log2FC SNORA74D [17]: 1.76 | log2FC SNORD15A [17]: 0.86 | log2FC SNORD15B [17]: 0.90 | log2FC SNORD17 [17]: 1.17 | log2FC ST7-AS1 [17]: 0.95 | log2FC SYPL1P2 [17]: 0.85 | log2FC TDRKH-AS1 [17]: 0.90 | log2FC ABHD14B [18]: 1.28 | log2FC AC099811.2 [18]: 1.35 | log2FC APRT [18]: 1.39 | log2FC COMMD5 [18]: 1.31 | log2FC DBP [18]: 1.90 | log2FC DDX28 [18]: 1.46 | log2FC DHCR7 [18]: 1.44 | log2FC DOLK [18]: 1.70 | log2FC FASN [18]: 1.28 | log2FC H2AFX [18]: 1.36 | log2FC HIST1H1D [18]: 1.36 | log2FC HIST1H2BF [18]: 1.63 | log2FC HIST1H3B [18]: 1.82 | log2FC HIST1H3C [18]: 1.45 | log2FC HIST1H3I [18]: 1.28 | log2FC INSIG1 [18]: 1.65 | log2FC MVK [18]: 1.37 | log2FC ORMDL3 [18]: 1.39 | log2FC PCYT2 [18]: 2.03 | log2FC POP7 [18]: 1.30 | log2FC RNF26 [18]: 1.71 | log2FC SCD [18]: 1.67 | log2FC SDR39U1 [18]: 1.67
